The source of these data is patent publication US10464904B2, “Dextrorphan-derivatives with suppressed central nervous activity” (Heinrich-Heine-Universität Düsseldorf, priority 2015, dated 2019).

This data set is described as follows: Rotarod test, time on rod. The format is in vivo, C57BL/6 mice. The settings on record: mice, 30 minutes after i.p. injection. The method, then:
FIG. 6: Time that C57BL/6 mice stayed on rod 30 minutes after i.p. injection of PBS without (control) or with either 50 μg g^−1 body weight DXO or 100 μg g^−1 body weight compound (4); n=5 male mice each. Significance determined by Student's t-test. *P<0.05. All values are mean±SD.

Molecules are shown by their SMILES.

In the case of `CN1CC[C@@]23CCCC[C@@H]2[C@@H]1Cc1ccc(O)cc13` [dextrorphan, (+)-17-methyl-9α,13α,14α-morphinan-3-ol], the “coordination deficits in rotarod test” value is reported as “does”.
